Measured values taken from patent US20210171576A1, “METHODS FOR TREATING CANCER WITH ACYLDEPSIPEPTIDE ANALOGS” (priority 2018, published 2021).
Where a SMILES comes first, the peptide text is derived from it. Bridges are numbered along the chain shown (N, C = ends). [ ]: non-standard residue; d: D form. The star is where a group is joined. Phe(3,5-F2) = N[C@@H](Cc1cc(F)cc(F)c1)C(=O)O; Heptenoyl(2E) = CCCC/C=C/C(=O)*; aThr = C[C@H](O)[C@H](N)C(=O)O; Pip = O=C(O)[C@@H]1CCCCN1

How the values were obtained:
[1] = molecular target: T1, human mitochondrial CIpP (HsCIpP) (Homo sapiens, UniProt Q16740); assay: Screen of ADEP analogs against HsCIpP: relative degradation (RD) index, casein-FITC degradation relative to E. coli CIpAP; type: biochemical; parameters: key: casein-FITC degradation by HsClpP relative to EcClpAP
T1 construct: made in house; host or cells: E. coli SG1146 (BL21(DE3) ΔclpP::cat)
Source text: Structural analogs of acyldepsipeptide (ADEP) (Goodreid et al., 2016) that were previously developed as potential antibiotics against bacterial CIpP were screened and assessed for their ability to activate and dysregulate the protease activity of HsCIpP, by measuring their relative degradation (RD) index. Note that ADEP-28 was also previously reported by Carney et al. (2014). Details of the experimental protocol have been described in Leung et al., 2011. The RD index is defined as follows: […]
Δφ is the change in fluorescence after 6 hr of starting the reaction measured using 485 nm excitation and 535 nm emission, which primarily detects the signal from casein-FITC. E. coli CIpAP was used as a benchmark for maximum CIpP proteolytic activity. The CIpP in the numerator can be from any other organism. RD25 measurements refer to the measurement in the presence of 25 μM compound. All ADEP analogs were first screened at 25 μM, and their RD25 scores were calculated using the above formula and method as described in Leung et al., 2011 (FIG. 1A). Those that achieved RD25≥0.87 were screened a second time at 5 μM, followed by calculation of their RD5 scores. The top analogs with RD5≥0.74 were screened a third time at 1 μM, followed by calculation of their RD1 scores (FIG. 1B).
To identify ADEP analogs that allow HsCIpP to degrade folded proteins independent of HsCIpX+ATP (i.e., that activate or dysregulate HsCIpP), the inventors employed the in vitro screening method that was used for identifying small molecule activators of Escherichia coli CIpP (EcCIpP) (Leung et al., 2011). In this approach, the ability of HsCIpP to degrade FITC-labeled casein (casein-FITC) was measured and compared to the ability of EcCIpAP to degrade casein-FITC. This is quantitatively expressed as relative degradation (RD) index (Leung et al., 2011).

[2] = molecular target: T2, HsCIpP (Homo sapiens, UniProt Q16740, P57S); assay: Protease activity assay (casein-FITC degradation) with ADEP, independent of HsCIpX; type: biochemical; conditions: 3 μM HsCIpP, 10 μM casein-FITC, no HsCIpX; read-out: K0.5 (microscopic apparent dissociation constant), protease activity
T2 construct: 2x(His6-thrombin)-SUMO (N, cleaved yes); made in house; host or cells: E. coli (SG1146 stated for HsClpP; 'a similar protocol' for HsClpX)
Description: The protease activity of purified HsCIpP was assessed by monitoring the degradation of bovine milk casein labelled with fluorescein isothiocyanate (casein-FITC) (Sigma-Aldrich) in the presence of ADEP and/or purified HsCIpX. All reactions were carried out in 25 mM HEPES, pH 7.5, 35 mM KCl, 25 mM MgCl2, 0.03% Tween-20, 10% glycerol, and 1 mM DTT, supplemented with 16 mM creatine phosphate and 300 μM ATP. HsCIpP was used at 3 μM (final monomeric concentration) and casein-FITC was added at the final concentration of 10 μM. 13 U of creatine phosphokinase (Sigma-Aldrich) was also added for ATP regeneration. DMSO was present at 1% (v:v) final concentration in the experiments that involve the use of ADEP analogs. All reactions were carried out with 150 μL of the reaction mix per well in a 96-well black flat-bottom plate at 37° C. Degradation of casein-FITC and subsequent release of the free FITC moiety was monitored by fluorescence with λex=494 nm and λem=518 nm using the EnSpire 2300 Multilabel Reader set to perform a reading every 40 s with 20 flashes. A total of 100 readings were collected in each experiment. […]
The effect of ADEP in activating HsCIpP was assessed via the degradation of casein-FITC by HsCIpP independent of HsCIpX. […] Initial rates data were collected and analyzed using the Hill equation above to determine Vmax, h and K0.5 for each ADEP analog. […]

[3] = tested on: HEK293 T-REx WT cells; assay: 3D Structured Illumination Microscopy (3DSIM) of mitochondrial morphology; type: cell-based, human; conditions: 2 μM
Description: HEK293 T-REx WT and CLPP^'1/− cells were seeded on coverslips (Electron Microscopy Sciences) pre-coated with poly-D-lysine hydrobromide (Sigma-Aldrich) in a 12-well culture plate (Falcon). Cells were grown for 24 hours to allow adhesion, followed by treatment with 2 μM ADEP-41 or DMSO in the same manner as described in previous sections, for 24 or 72 hours. At these time points, the original media was removed, and cells were incubated for 30 minutes at 37° C., 5% CO2 with 200 nM MitoTracker Red CMXRos (Molecular Probes) in Opti-MEM™ Reduced Serum Medium (Gibco). Cells were then washed once with PBS and fixed with 4% (v/v) paraformaldehyde (Electron Microscopy Sciences) in PBS for 20 minutes at room temperature.
The fixed cells were then washed twice with PBS, permeabilized with 0.2% (v/v) Triton X-100 (BioShop) in PBS for 10 minutes at room temperature and incubated with 2 μg/mL Hoechst 33342 (Molecular Probes) in PBS for 10 minutes at room temperature to counterstain nuclei. Coverslips were then washed three times with PBS+0.05% (v/v) Tween-20 and mounted on microscope glass slides (VWR) using 0.5% (w/v) propyl gallate (Sigma-Aldrich) dissolved in glycerol as the mounting medium.
3DSIM data were collected on the ELYRA PS.1 super resolution microscope (Carl Zeiss Microscopy) using a 63× (1.4 NA) Plan-Apochromatic oil immersion objective (Carl Zeiss Microscopy) and a 1.6× Optovar. […]

[4] = tested on: HeLa (regular) cells; assay: Cytotoxicity, SRB staining
Description: (§1) To assess the cytotoxicity of ADEP analogs, cells were seeded at 1×10^3 or 2×10^3 cells in 50 μL per well on sterile 96-well flat-bottom tissue culture plates (VWR). Growth media without any cells was included as a control. Cells were grown for at least 24 hours to allow proper adherence to the growth surface. Afterwards, ADEP analogs were serially diluted and introduced to the tissue cultures via fresh growth media at 50 μL per well. Inclusion of activators/DMSO brought the final DMSO concentration of the growth media up to a maximum of 0.5% (v:v). […] A total of four independent replicates were prepared for each cell line and for each growth condition used. Cells were grown in the presence of ADEP/DMSO for 72 hours.
(§2) To assess cell survival, live adherent cells were fixed with 10% (w:v) trichloroacetic acid (TCA) at 4° C. for 1-2 hours. The tissue culture plates were then rinsed with water to remove dead cells and cell debris and air-dried overnight. […] Absorbance at λ=510 nm (A510) was then measured using the EnSpire 2300 Multilabel Reader. […]
(§3) To determine the IC50 for the ADEP analogs, relative cell viability (RCV) values were calculated by normalizing the A510 readings in ADEP-containing sample to the DMSO-only control. […]

[5] = tested on: U2OS cells; assay: Cytotoxicity, SRB staining
Description: as §1, §2, §3

T1 sequence (Q16740 57-277): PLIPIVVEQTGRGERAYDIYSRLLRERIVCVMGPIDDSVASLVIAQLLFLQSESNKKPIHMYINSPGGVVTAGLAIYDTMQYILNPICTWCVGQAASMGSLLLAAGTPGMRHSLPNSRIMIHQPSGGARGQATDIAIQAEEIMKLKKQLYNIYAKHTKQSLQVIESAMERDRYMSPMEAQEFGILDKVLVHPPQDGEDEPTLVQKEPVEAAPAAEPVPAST
T2 sequence (Q16740 57-277 P57S): as the sequence (Q16740 57-277) above, with P1S counted along it

## CCCC/C=C/C(=O)N[C@@H](Cc1cc(F)cc(F)c1)C(=O)N[C@@H]1C(=O)N2CCC[C@H]2C(=O)N2CCCC[C@H]2C(=O)N[C@@H](C)C(=O)N2CCC[C@H]2C(=O)O[C@H]1C [ADEP-41] ({Heptenoyl(2E)}-[Phe(3,5-F2)][aThr]P[Pip]AP; ester 2-C)
[1]; RD value at 1 μM of the ADEP analog
  Hs RD1: 0.79
[1]; RD value at 5 μM of the ADEP analog
  Hs RD5: 0.93
[1]; RD value at 25 μM of the ADEP analog, measure of ability to activate HsCIpP
  Hs RD25: 0.96
[2]
  Kd: 120 nM
[3]; 24 hours
  mitochondrial fragmentation: clear signs of mitochondrial fragmentation
[3]; 72 hours
  mitochondrial fragmentation: very significant
[4]
  IC50 compared across cell lines: similar
[5]
  IC50 compared across cell lines: similar
